Values quoted from earlier work in paper PMC9710334 (BMJ Open Gastroenterology, 2022).

B1: vantictumab: Wnt pathway inhibitor (antibody, chains of the INN, looked up, V domains shown)
VH: EVQLVESGGGLVQPGGSLRLSCAASGFTFSHYTLSWVRQAPGKGLEWVSVISGDGSYTYYADSVKGRFTISSDNSKNTLYLQMNSLRAEDTAVYYCARNFIKYVFANWGQGTLVTVSS
VL: DIELTQPPSVSVAPGQTARISCSGDNIGSFYVHWYQQKPGQAPVLVIYDKSNRPSGIPERFSGSNSGNTATLTISGTQAEDEADYYCQSYANTLSLVFGGGTKLTVL

Columns and labels:
patients with PBC = conditions: approximately ref 1 3; cited from earlier work
treated patients = treated patients ref 37 38; cited from earlier work

Molecule	patients without an optimal biochemical response (patients with PBC)	risk for fragility fractures (treated patients)
C[C@H](CCC(=O)O)[C@H]1CC[C@H]2[C@@H]3[C@@H](O)C[C@@H]4C[C@H](O)CC[C@]4(C)[C@H]3CC[C@]12C [UDCA, ursodeoxycholic acid]	30%–40%	–
B1	–	increased risk for fragility fractures
